From ChEMBL document CHEMBL5291721, “A preclinical secondary pharmacology resource illuminates target-adverse drug reaction associations of marketed drugs” (Nat Commun, 2023)

How the values were obtained:
Acetylcholinesterase = Acetylcholinesterase (Homo sapiens, UniProt P22303); format: functional
D(3) dopamine receptor = D(3) dopamine receptor (Homo sapiens, UniProt P35462)
Estrogen receptor = molecular target: T1, Estrogen receptor (Homo sapiens, UniProt P03372)
T1 sequence (P03372 whole entry): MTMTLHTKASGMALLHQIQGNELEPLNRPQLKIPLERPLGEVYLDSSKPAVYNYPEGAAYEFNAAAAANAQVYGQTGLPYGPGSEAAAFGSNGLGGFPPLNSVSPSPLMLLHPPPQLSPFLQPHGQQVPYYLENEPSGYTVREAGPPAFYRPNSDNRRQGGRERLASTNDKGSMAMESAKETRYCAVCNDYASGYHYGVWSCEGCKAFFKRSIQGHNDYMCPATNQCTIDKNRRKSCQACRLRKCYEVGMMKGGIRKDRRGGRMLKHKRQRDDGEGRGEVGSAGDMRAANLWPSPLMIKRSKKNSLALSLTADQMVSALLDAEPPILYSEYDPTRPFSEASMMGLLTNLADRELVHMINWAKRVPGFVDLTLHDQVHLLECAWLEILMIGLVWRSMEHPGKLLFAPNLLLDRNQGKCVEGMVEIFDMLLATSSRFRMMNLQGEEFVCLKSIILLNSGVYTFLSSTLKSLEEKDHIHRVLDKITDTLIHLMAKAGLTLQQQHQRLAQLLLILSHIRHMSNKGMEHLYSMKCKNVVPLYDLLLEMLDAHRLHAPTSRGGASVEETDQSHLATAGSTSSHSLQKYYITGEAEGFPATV

Prothrombin = Prothrombin (Homo sapiens, UniProt P00734); format: functional
[1] = molecular target: 5-hydroxytryptamine receptor 2B (Homo sapiens, UniProt P41595); format: functional, cell-based
[2] = molecular target: Voltage-gated inwardly rectifying potassium channel KCNH2 (Homo sapiens, UniProt Q12809); format: functional; conditions: read-out: AC50
[3] = molecular target: T2, Amine oxidase [flavin-containing] A (Homo sapiens, UniProt P21397); format: functional
T2 sequence (P21397 whole entry): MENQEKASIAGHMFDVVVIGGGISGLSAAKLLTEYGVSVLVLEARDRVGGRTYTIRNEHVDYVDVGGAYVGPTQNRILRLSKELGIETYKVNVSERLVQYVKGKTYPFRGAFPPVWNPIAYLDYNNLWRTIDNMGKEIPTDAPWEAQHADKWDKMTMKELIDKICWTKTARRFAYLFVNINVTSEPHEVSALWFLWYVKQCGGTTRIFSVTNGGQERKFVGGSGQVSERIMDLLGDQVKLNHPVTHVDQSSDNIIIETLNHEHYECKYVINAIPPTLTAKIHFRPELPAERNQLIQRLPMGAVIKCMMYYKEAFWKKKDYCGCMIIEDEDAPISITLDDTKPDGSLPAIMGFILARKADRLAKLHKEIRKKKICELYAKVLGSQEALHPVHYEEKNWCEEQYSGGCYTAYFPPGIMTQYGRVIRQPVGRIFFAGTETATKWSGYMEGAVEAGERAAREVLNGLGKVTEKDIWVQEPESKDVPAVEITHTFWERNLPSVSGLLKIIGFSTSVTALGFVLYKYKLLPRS

Mu-type opioid receptor = Mu-type opioid receptor (Homo sapiens, UniProt P35372)
[4] = molecular target: cGMP-inhibited 3',5'-cyclic phosphodiesterase 3A (Homo sapiens, UniProt Q14432); format: functional
[5] = molecular target: T3, Prostaglandin G/H synthase 1 (Homo sapiens, UniProt P23219); format: functional
[6] = molecular target: T3, Prostaglandin G/H synthase 1; format: functional; remark: listed apart in the source
[7] = molecular target: Sodium-dependent dopamine transporter (Homo sapiens, UniProt Q01959)
Thromboxane A2 receptor [8] = molecular target: T4, Thromboxane A2 receptor (Homo sapiens, UniProt P21731); format: functional, cell-based
T4 sequence (P21731 whole entry): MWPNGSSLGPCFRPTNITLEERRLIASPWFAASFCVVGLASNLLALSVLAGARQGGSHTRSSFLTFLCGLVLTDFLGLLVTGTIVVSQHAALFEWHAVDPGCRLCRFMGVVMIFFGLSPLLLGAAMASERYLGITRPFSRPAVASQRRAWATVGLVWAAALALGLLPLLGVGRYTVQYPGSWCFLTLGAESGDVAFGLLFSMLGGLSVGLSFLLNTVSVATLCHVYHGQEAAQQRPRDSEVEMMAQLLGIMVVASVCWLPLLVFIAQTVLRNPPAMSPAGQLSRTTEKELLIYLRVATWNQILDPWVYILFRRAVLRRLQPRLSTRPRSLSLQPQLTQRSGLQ

Thromboxane A2 receptor [9] = molecular target: T4, Thromboxane A2 receptor; format: functional, cell-based; remark: listed apart in the source
[10] = molecular target: T5, Alpha-1A adrenergic receptor (Homo sapiens, UniProt P35348); format: functional, cell-based
T5 sequence (P35348 whole entry): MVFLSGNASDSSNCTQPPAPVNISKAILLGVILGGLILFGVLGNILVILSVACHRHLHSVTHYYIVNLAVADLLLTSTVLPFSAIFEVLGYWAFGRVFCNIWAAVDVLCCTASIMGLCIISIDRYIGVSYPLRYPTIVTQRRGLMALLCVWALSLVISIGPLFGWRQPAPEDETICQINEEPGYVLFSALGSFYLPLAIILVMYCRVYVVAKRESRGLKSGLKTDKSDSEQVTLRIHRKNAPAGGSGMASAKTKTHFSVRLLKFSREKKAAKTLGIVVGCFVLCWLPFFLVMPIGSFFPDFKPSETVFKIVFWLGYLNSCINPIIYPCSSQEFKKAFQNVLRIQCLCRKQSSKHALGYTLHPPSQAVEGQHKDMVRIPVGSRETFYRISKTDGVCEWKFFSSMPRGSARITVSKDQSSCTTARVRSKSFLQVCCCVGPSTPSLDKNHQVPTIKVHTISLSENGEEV
Further: assay procedure not described here.

Chain of 5-hydroxytryptamine receptor 2B (P41595 whole entry): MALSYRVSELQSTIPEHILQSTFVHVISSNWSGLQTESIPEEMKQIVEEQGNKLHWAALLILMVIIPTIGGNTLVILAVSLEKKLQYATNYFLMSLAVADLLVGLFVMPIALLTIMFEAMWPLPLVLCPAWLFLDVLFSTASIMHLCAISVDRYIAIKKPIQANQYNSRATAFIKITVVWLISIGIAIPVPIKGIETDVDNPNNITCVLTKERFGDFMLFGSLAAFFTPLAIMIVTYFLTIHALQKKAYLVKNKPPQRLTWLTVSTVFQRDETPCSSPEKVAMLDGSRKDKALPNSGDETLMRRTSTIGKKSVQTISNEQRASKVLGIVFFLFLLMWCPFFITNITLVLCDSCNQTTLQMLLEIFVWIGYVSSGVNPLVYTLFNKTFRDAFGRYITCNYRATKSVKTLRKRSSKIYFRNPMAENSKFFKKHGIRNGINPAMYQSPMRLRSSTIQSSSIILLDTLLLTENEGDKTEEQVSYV
Chain of Sodium-dependent dopamine transporter (Q01959 whole entry): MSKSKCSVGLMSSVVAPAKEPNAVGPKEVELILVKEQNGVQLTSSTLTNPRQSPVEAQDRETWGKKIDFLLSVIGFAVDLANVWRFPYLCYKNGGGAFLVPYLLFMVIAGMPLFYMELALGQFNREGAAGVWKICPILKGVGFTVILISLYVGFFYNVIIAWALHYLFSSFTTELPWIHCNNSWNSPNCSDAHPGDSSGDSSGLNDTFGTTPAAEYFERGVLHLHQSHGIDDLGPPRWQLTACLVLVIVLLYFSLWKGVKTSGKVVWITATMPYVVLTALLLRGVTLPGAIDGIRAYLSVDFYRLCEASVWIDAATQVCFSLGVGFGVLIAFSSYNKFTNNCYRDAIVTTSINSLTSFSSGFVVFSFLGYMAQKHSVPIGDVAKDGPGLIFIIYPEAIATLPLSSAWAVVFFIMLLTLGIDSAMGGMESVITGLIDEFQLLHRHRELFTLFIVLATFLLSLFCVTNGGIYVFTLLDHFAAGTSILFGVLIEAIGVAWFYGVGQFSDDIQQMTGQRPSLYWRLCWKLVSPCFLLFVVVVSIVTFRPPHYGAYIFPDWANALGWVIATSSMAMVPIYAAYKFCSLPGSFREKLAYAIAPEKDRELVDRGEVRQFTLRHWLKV
Chain of Voltage-gated inwardly rectifying potassium channel KCNH2 (Q12809 whole entry): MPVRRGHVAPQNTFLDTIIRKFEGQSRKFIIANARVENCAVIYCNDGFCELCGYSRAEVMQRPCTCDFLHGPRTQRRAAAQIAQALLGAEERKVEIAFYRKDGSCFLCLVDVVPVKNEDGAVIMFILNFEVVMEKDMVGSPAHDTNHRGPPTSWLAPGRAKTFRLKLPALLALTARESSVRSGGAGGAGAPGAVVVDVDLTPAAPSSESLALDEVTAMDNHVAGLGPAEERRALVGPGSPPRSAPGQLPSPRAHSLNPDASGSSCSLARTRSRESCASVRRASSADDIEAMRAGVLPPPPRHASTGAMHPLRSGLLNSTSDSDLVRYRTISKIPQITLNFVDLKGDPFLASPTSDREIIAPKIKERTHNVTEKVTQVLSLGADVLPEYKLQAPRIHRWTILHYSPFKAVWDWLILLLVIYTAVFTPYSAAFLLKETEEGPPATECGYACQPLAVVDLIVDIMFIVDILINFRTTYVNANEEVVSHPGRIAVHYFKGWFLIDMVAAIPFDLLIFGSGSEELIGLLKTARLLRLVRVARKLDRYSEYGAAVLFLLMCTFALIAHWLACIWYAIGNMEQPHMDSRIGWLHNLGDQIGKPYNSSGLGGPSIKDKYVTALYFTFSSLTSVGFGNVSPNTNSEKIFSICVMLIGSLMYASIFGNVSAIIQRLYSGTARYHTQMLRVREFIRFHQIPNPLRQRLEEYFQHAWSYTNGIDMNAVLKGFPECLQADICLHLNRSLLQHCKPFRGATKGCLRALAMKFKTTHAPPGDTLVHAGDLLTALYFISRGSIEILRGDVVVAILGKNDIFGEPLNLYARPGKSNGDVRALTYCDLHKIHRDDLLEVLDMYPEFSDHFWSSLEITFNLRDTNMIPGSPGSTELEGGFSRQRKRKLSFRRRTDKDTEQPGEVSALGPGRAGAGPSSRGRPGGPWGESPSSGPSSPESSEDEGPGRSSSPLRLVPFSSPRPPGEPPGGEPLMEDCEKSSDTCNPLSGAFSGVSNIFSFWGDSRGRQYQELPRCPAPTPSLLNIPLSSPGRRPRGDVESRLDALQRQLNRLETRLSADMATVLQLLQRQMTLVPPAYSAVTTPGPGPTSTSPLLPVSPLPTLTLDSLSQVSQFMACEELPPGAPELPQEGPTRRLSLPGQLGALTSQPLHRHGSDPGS
Chain of Mu-type opioid receptor (P35372 whole entry): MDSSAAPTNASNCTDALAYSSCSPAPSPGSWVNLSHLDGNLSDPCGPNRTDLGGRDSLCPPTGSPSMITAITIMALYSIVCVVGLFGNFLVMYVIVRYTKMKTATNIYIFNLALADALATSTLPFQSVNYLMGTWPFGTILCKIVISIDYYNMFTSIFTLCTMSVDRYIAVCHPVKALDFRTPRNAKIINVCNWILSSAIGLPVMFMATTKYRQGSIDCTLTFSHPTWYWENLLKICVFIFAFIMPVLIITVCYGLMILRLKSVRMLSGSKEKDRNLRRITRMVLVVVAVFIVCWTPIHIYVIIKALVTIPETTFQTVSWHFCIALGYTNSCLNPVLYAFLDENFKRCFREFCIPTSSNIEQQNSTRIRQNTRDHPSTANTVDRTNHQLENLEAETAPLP
Chain of cGMP-inhibited 3',5'-cyclic phosphodiesterase 3A (Q14432 whole entry): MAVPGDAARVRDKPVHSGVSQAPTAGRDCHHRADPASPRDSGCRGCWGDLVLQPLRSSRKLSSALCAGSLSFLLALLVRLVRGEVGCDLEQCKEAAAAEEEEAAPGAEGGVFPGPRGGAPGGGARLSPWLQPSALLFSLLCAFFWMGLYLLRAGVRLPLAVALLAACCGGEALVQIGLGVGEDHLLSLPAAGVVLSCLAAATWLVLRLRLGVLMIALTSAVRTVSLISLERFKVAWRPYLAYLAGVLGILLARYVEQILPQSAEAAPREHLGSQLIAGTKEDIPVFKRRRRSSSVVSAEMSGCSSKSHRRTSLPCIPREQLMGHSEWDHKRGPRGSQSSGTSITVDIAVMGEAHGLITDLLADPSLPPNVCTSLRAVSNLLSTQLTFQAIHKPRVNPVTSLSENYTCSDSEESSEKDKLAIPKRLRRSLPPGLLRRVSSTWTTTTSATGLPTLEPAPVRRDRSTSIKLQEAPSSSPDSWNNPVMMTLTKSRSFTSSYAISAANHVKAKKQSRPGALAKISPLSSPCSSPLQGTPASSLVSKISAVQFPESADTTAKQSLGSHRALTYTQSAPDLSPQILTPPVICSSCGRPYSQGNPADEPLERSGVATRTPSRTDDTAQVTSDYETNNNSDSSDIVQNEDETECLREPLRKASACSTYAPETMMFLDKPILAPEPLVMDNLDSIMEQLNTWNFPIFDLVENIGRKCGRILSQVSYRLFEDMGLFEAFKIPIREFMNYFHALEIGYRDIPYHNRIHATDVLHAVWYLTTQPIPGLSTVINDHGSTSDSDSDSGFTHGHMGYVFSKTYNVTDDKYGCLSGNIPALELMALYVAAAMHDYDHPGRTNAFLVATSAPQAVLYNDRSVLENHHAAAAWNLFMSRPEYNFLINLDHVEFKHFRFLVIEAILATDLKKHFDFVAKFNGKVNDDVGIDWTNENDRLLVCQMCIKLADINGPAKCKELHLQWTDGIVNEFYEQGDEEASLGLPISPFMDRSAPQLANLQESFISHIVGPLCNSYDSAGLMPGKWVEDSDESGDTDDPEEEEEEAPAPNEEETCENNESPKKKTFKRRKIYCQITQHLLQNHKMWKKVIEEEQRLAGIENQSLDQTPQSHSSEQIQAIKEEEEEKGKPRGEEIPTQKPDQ
Chain of Acetylcholinesterase (P22303 whole entry): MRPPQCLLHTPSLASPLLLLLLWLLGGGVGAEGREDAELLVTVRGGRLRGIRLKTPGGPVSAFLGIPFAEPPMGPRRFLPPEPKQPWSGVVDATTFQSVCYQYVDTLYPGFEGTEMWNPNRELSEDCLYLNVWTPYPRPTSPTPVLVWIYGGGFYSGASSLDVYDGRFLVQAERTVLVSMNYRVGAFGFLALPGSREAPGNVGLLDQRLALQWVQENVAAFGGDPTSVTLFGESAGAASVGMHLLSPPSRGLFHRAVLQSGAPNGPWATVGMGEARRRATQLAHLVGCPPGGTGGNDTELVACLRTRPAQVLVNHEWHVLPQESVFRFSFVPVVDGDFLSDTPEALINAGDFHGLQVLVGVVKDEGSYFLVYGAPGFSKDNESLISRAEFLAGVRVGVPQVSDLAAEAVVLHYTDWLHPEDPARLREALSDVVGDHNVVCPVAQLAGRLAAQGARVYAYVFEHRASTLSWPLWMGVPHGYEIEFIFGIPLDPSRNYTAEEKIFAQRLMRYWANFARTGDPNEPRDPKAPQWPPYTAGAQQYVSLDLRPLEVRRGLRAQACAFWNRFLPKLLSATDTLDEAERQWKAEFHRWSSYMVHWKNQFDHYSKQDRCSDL
T3 sequence (P23219 whole entry): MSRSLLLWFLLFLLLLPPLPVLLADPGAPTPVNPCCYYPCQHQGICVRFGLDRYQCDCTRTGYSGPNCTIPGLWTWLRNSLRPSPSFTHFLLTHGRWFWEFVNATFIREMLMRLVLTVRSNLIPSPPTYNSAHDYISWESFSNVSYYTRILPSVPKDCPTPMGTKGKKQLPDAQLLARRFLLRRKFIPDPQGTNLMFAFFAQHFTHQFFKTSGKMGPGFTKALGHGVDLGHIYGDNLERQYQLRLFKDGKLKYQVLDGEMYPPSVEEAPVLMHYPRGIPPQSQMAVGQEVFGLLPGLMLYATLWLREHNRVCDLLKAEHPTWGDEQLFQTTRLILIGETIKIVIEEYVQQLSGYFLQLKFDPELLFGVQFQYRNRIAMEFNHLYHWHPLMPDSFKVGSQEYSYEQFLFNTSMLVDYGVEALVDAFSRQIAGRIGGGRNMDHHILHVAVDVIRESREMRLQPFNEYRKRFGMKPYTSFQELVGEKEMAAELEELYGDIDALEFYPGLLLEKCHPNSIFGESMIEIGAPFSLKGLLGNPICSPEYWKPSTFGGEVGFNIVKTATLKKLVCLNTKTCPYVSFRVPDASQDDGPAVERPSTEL

Row | SMILES | AC50 (Acetylcholinesterase) [µM] | AC50 (D(3) dopamine receptor) [µM] | AC50 (Estrogen receptor) [µM] | AC50 (Prothrombin) [µM] | AC50 [1] [µM] | AC50 [2] [µM] | AC50 [3] [µM] | AC50 (Mu-type opioid receptor) [µM] | AC50 [4] [µM] | AC50 [5] [µM] | AC50 [6] [µM] | AC50 [7] [µM] | AC50 (Thromboxane A2 receptor [8]) [µM] | AC50 (Thromboxane A2 receptor [9]) [µM] | AC50 [10] [µM]
1 | N/N=c1/cc2c(n[nH]1)CCN(C(=O)c1ccccc1)C2 [ENDRALAZINE] | > 30 | > 30 | > 30 | > 30 | > 30 | > 30 | > 30 | > 30 | > 30 | > 30 | 22.3 | > 30 | > 30 | > 30 | –
2 | C=C1C[C@@H]2[C@H](CC[C@]3(C)C(=O)CC[C@@H]23)[C@@]2(C)C=CC(=O)C=C12 [EXEMESTANE] | – | – | – | – | – | > 30 | – | – | – | – | – | – | – | – | –
3 | CC(C)=CCC1C(=O)N(c2ccccc2)N(c2ccccc2)C1=O [FEPRAZONE] | > 30 | > 30 | > 30 | > 30 | > 30 | – | > 30 | > 30 | > 30 | 0.26 | > 30 | > 30 | > 30 | > 30 | –
4 | CC(C(O)c1ccc(O)cc1)N1CCC(Cc2ccccc2)CC1 (stereo not drawn) [IFENPRODIL] | – | – | – | – | – | 0.67 | – | – | – | – | – | – | – | – | –
5 | CC(=O)N(CC(O)CO)c1c(I)c(C(=O)NCC(O)CO)c(I)c(C(=O)NCC(O)CO)c1I (stereo not drawn) [IOHEXOL] | – | – | – | – | – | > 30 | – | – | – | – | – | – | – | – | –
6 | CN(CCCN1c2ccccc2CCc2ccccc21)CC(=O)c1ccc(Cl)cc1 [LOFEPRAMINE] | – | – | – | – | – | 3.3 | – | – | – | – | – | – | – | – | –
7 | CN1C(=O)N(C)C2C1N(C)C(=O)N2C (stereo not drawn) [MEBICAR] | > 30 | > 30 | > 30 | > 30 | > 30 | > 30 | > 30 | > 30 | > 30 | > 30 | > 30 | > 30 | > 30 | > 30 | –
8 | CC(=O)O[C@]1(C(C)=O)CC[C@H]2[C@@H]3C[C@H](C)C4=CC(=O)CC[C@]4(C)[C@H]3CC[C@@]21C [MEDROXYPROGESTERONE ACETATE] | > 30 | > 30 | – | > 30 | > 30 | > 30 | > 30 | > 30 | > 30 | > 10 | > 30 | > 30 | > 30 | > 30 | > 30
9 | CN(C/C=C/c1ccccc1)Cc1cccc2ccccc12 [NAFTIFINE] | – | – | – | – | – | 2.02 | – | – | – | – | – | – | – | – | –
10 | CC(C)NCC1CCc2cc(CO)c([N+](=O)[O-])cc2N1 (stereo not drawn) [OXAMNIQUINE] | – | – | – | – | – | > 30 | – | – | – | – | – | – | – | – | –
11 | Nc1ccc(/N=N/c2ccccc2)c(N)n1 [PHENAZOPYRIDINE] | > 3 | > 30 | > 30 | > 30 | > 30 | 14 | > 30 | > 30 | 20.9 | > 30 | 24.9 | 4.71 | > 30 | 28.4 | –
12 | CN(C)CCCN1c2ccccc2Sc2ccccc21 [PROMAZINE] | – | – | – | – | – | 8.1 | – | – | – | – | – | – | – | – | –
13 | O=P(O)(O)C(O)(Cc1cccnc1)P(=O)(O)O [RISEDRONIC ACID] | – | – | – | – | – | > 30 | – | – | – | – | – | – | – | – | –
14 | CC(=O)N[C@H]1[C@H]([C@H](O)[C@H](O)CO)OC(C(=O)O)=C[C@@H]1N=C(N)N [ZANAMIVIR] | – | – | – | – | – | > 30 | – | – | – | – | – | – | – | – | –
